Values quoted from earlier work in US5629294A, “Compositions and methods for preventing adhesion formation” (University of Southern California, priority 1994, dated 1997).

Columns and labels:
[1] = system: platelet aggregation in response to ADP and collagen
[2] = system: platelet accumulation associated with the administration of a collagen substrate and ADP; settings: baboon model, RGDV given at 0.35, 0.68 or 1.31 μmol/min

## RGDV
[1]
  concentration necessary to effectively abolish platelet aggregation: 100 µM
[2]
  platelet accumulation: dose-dependent reduction in platelet accumulation
